Consider three compounds from US10987349B2, “Antitumor agent and bromodomain inhibitor” (FUJIFILM Corporation, priority 2016, dated 2021).

Common to all, as to type: cell-based
Test [1] deals with human pancreatic cancer cell line MIAPACA-2. Description: Cell growth test (Cell Titer Glo) MIAPACA-2. The settings on record: MIA PaCa-2, MIAPACA-2, Pancreatic cancer, 3 to 5 days. From the text: The human undifferentiated thymoma cell line Ty-82 (JCRB), the human acute myeloid leukemia cell lines MV4-11 (ATCC), MOLM-13 (ATCC) and RS4-11 (ATCC), the human lymphoma cell line Raji (JCRB), the human cervical epidermoid carcinoma cell line Hela (JCRB), the human lung adenocarcinoma cell line A549 (ATCC), the human colon cancer cell lines DLD1 (DS Pharma) and HCT116 (DS Pharma), and the human pancreatic cancer cell line MIAPACA-2 (ATCC) were used to carry out a cell growth test.
Ty-82, MV4-11, MOLM-13, RS4-11, Raji and DLD1 were each seeded in a well plate, in which Roswell Park Memorial Institute (RPMI)-1640 medium supplemented with penicillin/streptomycin and fetal bovine serum (FBS) with a final concentration of 10% was placed. Hela was seeded in Dulbecco's Modified Eagle's medium (DMEM) supplemented with penicillin/streptomycin and FBS with a final concentration of 10%. A549 and MIAPACA-2 were each seeded in a well plate, in which Minimum Essential Medium (MEM) supplemented with penicillin/streptomycin and FBS with a final concentration of 10% was placed. […]
Thereafter, a medium containing a test compound serially diluted with DMSO, or DMSO, was added to each well of the plate, in which the cells had been seeded, and the obtained mixture was then cultured under conditions of 37° C. and 5% CO2 for 3 to 5 days. Cell Titer Glo reaction solution (Promega) was added to the culture, and the amount of luminescence was then measured using Envision plate reader (PerkinElmer). Since the amount of luminescence is in proportion to the concentration of adenosine triphosphate (ATP) in cells, the amount of luminescence was used as an indicator of the number of living cells. The growth inhibition percentage of the test compound in each concentration was calculated according to the following equation. Growth inhibition percentage (%)=(amount of luminescence in test compound−added well)/(amount of luminescence in DMSO−added well)×100 […]

The test system of test [2] is KM12. Nature of the test: Cell growth test (Cell Titer Blue) KM12. The settings on record: Homo sapiens, 72 h, KM12, Colon cancer, 3 days. How it is done: (§1) Moreover, the compound of Example 14 was subjected to a cell growth test using various types of cell lines.
(§2) All cell lines other than the below-noticed cells were each seeded in a well plate, in which an RPMI-1640 medium supplemented with penicillin/streptomycin and FBS with a final concentration of 10% was placed. The human prostate cancer cell line VCaP (ATCC) was seeded in a well plate, in which DMEM medium supplemented with penicillin/streptomycin and FBS with a final concentration of 10% was placed. […] Thereafter, using Enspire Multimode Plate Reader (PerkinElmer), the amount of fluorescence at an excitation wavelength of 531 nm and a fluorescence wavelength of 615 nm was measured. Since the amount of fluorescence is in proportion to the concentration of a florescent product resorufin that is converted from resazurin as a redox dye by living cells, the amount of fluorescence was used as an indicator of the number of living cells. The growth inhibition percentage of the test compound in each concentration was calculated according to the following equation. Growth inhibition percentage (%)=(amount of fluorescence in test compound−added well)/(amount of fluorescence in DMSO−added well)×100 […]

The test system of test [3] is HOP-62. Description: Cell growth test (Cell Titer Blue) HOP-62. Particulars: Homo sapiens, 72 h, HOP-62, Lung cancer, 3 days. How it is done: as §1, §2
In general terms: The colour change of resazurin is a common sign of viable cells or microbes.

The subject of test [4] is NCI-H522. Nature of the test: Cell growth test (Cell Titer Blue) NCI-H522. Particulars: Homo sapiens, 72 h, NCI-H522, Lung cancer, 3 days. As for the experimental part: as §1, §2
The test system of test [5] is Saos-2. Description: Cell growth test (Cell Titer Blue) Saos-2. The settings on record: Homo sapiens, 72 h, Saos-2, Sarcoma, 3 days. How it is done:
as §1, §2

Structures are written as SMILES.

Turning to `CCn1c(=O)cc(C2CCN(C)CC2)c2cc(C(=O)N(C)c3ccc(C)cc3)ccc21` [Example 14, 1-Ethyl-N-methyl-N-(4-methylphenyl)-4-(1-methylpiperidin-4-yl)-2-oxo-1,2-dihydroquinoline-6-carboxamide], the 50% growth inhibitory concentration (GI50) in test [1] is 1420 nM; in test [2] it was 1490 nM; in test [3] it was 143 nM; in test [4], 155 nM; in test [5], 2620 nM.
With `CCn1c(=O)cc(C2CCN(C)CC2)c2cc(C(=O)N(C)c3ccc4c(c3)CCC4)ccc21` [Example 17, N-(2,3-dihydro-1H-inden-5-yl)-1-ethyl-N-methyl-4-(1-methylpiperidin-4-yl)-2-oxo-1,2-dihydroquinoline-6-carboxamide], it took 307 nM to inhibit growth in test [1] by half (GI50).
Still for that read-out and setting: the figure for `CCn1c(=O)cc(N2CCOCC2)c2cc(-n3c(-c4ccc(Cl)cc4)c[nH]c3=O)ccc21` [Example 245, 6-(5-(4-chlorophenyl)-2-oxo-2,3-dihydro-1H-imidazol-1-yl)-1-ethyl-4-(morpholin-4-yl)quinolin-2(1H)-one] is 760 nM.

As usually defined, the GI50 is the concentration at which growth is held to half of that of the control.
